Where “and” joins values, the source holds several entries; their conditions need not be identical. Equal values may be shown once.
Assays:
[1] = system: trigeminal ganglion malondialdehyde; experiment: Malondialdehyde (oxidative stress) immunostaining of trigeminal ganglion after recurrent spreading depression; type: in vivo, rat
Protocol: N2B delivery of 150 μg human recombinant IGF-1 (#191-G1; R&D Systems, Minneapolis, MN) in 50 μL sodium succinate buffer followed the previously described approach (21,51) that was based on the techniques of Liu and coworkers (24) in the recording laboratory under isoflurane anesthesia with spontaneous ventilation.
Induction of recurrent SD followed previously published aseptic techniques from the inventors' laboratory (8, 13, 21, 25, 26, 51) (FIG. 4). […]
Imaging was performed using a Photometrics self-calibrating digital camera QuantEM-512SC camera (500×500 pixels; Photometrics, Tucson, AZ) run on MetaMorph software (v. 7.0.4; Molecular Devices, Sunnyvale, CA) under blinded conditions (as previously described (13, 20-22). Image exposure, camera gain and thresholding were uniformly set (i.e., equivalently for experimental and sham groups for each imaging metric (i.e., MDA, CGRP and c-fos). Resultant images were digitally stored as TIFF files for subsequent analyses that continued under blinded conditions where image integrated fluorescence intensity was registered using MetaMorph software for MDA and CGRP.
Images of MDA and CGRP were analyzed while blinded and later decoded to ratios of experimental/sham image integrated optical intensity, a sensitive metric that not only accounts for the area but also the pixel intensity of related image fluorescence. […]

[2] = system: caudal trigeminal nucleus c-fos; experiment: c-fos immunostaining of caudal trigeminal nucleus after recurrent spreading depression; type: in vivo, rat; settings: −4.5 mm from the obex, n=6/group
Description: Induction of recurrent SD followed previously published aseptic techniques from the inventors' laboratory (8, 13, 21, 25, 26, 51) (FIG. 4). Animals were anesthetized with 5% isoflurane, which was later reduced to 1.5% inhalational isoflurane in oxygen during procedures and followed previous procedures for assessing the impact of recurrent SD after pretreatment with N2B IGF-1 (21, 51)).
One day after N2B treatment and surgery, animals were again anesthetized with 5% isoflurane in oxygen that was reduced to 1.5% during recordings of CSD followed by procedures to induce recurrent CSD every 10 minutes for 90 minutes as previously described (FIG. 4) (21,51). […]
For c-fos image analyses, the 5× digitally stored TIFF files were electronically enlarged to facilitate cell counting to 6,400×6,400 pixels and adjusted for brightness/contrast equivalently between experimental group pairs using Image J (v. 1.43i; National Institutes of Health public access). c-fos labeled nuclei were manually counted by an observer blinded to experimental conditions. Only intensely stained, round or oval-shaped nuclei were counted in lamina I-II [obex through −6.0 mm, recording the average of n=3 sections (technical replicates) at each anatomical level per animal (n≥5 biological replicates/group)]. […]

[3] = within 30 minutes of N2B administration; cited from earlier work

Which results are given for “IGF-1: human recombinant IGF-1 (#191-G1; R&D Systems), 150 μg in 50 μL sodium succinate buffer, delivered nose-to-brain”?
reduction of malondialdehyde levels in the trigeminal ganglion after recurrent SD ([1]; N2B IGF-1 150 μg a day before 90 minutes of recurrent SD, p<0.001): 82% and 83%; natural logarithm ratio (IGF-1/sham) of MDA immunostaining after recurrent SD ([1]; n=5/group): −1.37±0.40; relative c-fos positive cell counts (sham set to 1.00) [2]: 0.52±0.11; levels in the trigeminal ganglion relative to levels in the olfactory bulb [3]: ~10 fold

Reference: patent US12324827B2, “Combination therapy for the treatment of migraines” (The University of Chicago, priority 2019, dated 2025)
